Values quoted from earlier work, collected in patent US20260054267A1, “PRODUCTION OF ENCAPSULATED NANOPARTICLES AT COMMERCIAL SCALE” (ICEUTICA PTY LTD., priority 2009, published 2026).

Conditions: slowly absorbed by the body

Cc1cnc(NC(=O)C2=C(O)c3ccccc3S(=O)(=O)N2C)s1 [Meloxicam]
Tmax: 4 to 5 h
